Measurements taken from patent US12478624B2, “Heterocyclic derivatives, pharmaceutical compositions and their use in the treatment or amelioration of cancer” (Tolremo Therapeutics AG, priority 2019, dated 2025).
pEC50, pKd: −log10 of the molar value.

How the values were obtained:
GCN5L2 = molecular target: T1, GCN5L2 (Homo sapiens, UniProt Q92830); assay: BromoKdMAX (BROMOscan, DiscoverX); assay type: binding; details: GCN5L2 (KAT2A)
T1 construct: T7 phage strains displaying bromodomains were grown in parallel; purchased DiscoverX; host or cells: T7 phage grown in E. coli host derived from BL21
Protocol: (§1) A BromoKdMAX was performed at DiscoverX.
(§2) BROMOscan™ is a novel industry leading platform for identifying small molecule bromodomain inhibitors. Based on proven KINOMEscan™ technology, BROMOscan™ employs a proprietary ligand binding site-directed competition assay to quantitatively measure interactions between test compounds and bromodomains. This robust and reliable assay panel is suitable for high throughput screening and delivers quantitative ligand binding data to facilitate the identification and optimization of potent and selective small molecule bromodomain inhibitors.
(§3) For the Bromodomain assays, T7 phage strains displaying bromodomains were grown in parallel in 24-well blocks in an E. coli host derived from the BL21 strain. E. coli were grown to log-phase and infected with T7 phage from a frozen stock (multiplicity of infection=0.4) and incubated with shaking at 32° C. until lysis (90-150 minutes). The lysates were centrifuged (5,000×g) and filtered (0.2 μm) to remove cell debris. […] The liganded beads were blocked with excess biotin and washed with blocking buffer (SeaBlock (Pierce), 1% BSA, 0.05% Tween 20, 1 mM DTT) to remove unbound ligand and to reduce non-specific phage binding. […] Test compounds were prepared as 1000× stocks in 100% DMSO. Kds were determined using an 11-point 3-fold compound dilution series with one DMSO control point. […] The compounds were then diluted directly into the assays such that the final concentration of DMSO was 0.09%. All reactions performed in polypropylene 384-well plates. Each was a final volume of 0.02 ml. […] The bromodomain concentration in the eluates was measured by qPCR.

FALZ = molecular target: T2, FALZ (Homo sapiens, UniProt Q12830); assay: BromoKdMAX (BROMOscan, DiscoverX); assay type: binding; details: FALZ (BPTF)
T2 construct: T7 phage strains displaying bromodomains were grown in parallel; purchased DiscoverX; host or cells: T7 phage grown in E. coli host derived from BL21
Protocol: as §1, §2, §3

TRIM24(PHD, Bromo.) = molecular target: T3, TRIM24(PHD, Bromo.) (Homo sapiens, UniProt O15164); assay: BromoKdMAX (BROMOscan, DiscoverX); assay type: binding
T3 construct: TRIM24(PHD, Bromo.); purchased DiscoverX; host or cells: T7 phage grown in E. coli host derived from BL21
Protocol: as §1, §2, §3

BRD7 = molecular target: T4, BRD7 (Homo sapiens, UniProt Q9NPI1); assay: BromoKdMAX (BROMOscan, DiscoverX); assay type: binding
T4 construct: T7 phage strains displaying bromodomains were grown in parallel; purchased DiscoverX; host or cells: T7 phage in an E. coli host derived from the BL21 strain
Protocol: as §1, §2, §3

ATAD2A = molecular target: T5, ATAD2A (Homo sapiens, UniProt Q6PL18); assay: BromoKdMAX (BROMOscan, DiscoverX); assay type: binding
T5 construct: T7 phage strains displaying bromodomains were grown in parallel; purchased DiscoverX; host or cells: T7 phage in an E. coli host derived from the BL21 strain
Protocol: as §1, §2, §3

PBRM1(5) = molecular target: T6, PBRM1(5) (Homo sapiens, UniProt Q86U86); assay: BromoKdMAX (BROMOscan, DiscoverX); assay type: binding
T6 construct: T7 phage strains displaying bromodomains were grown in parallel; purchased DiscoverX; host or cells: T7 phage grown in E. coli host derived from BL21
Protocol: as §1, §2, §3

TAF1L(2) = molecular target: T7, TAF1L(2) (Homo sapiens, UniProt Q8IZX4); assay: BromoKdMAX (BROMOscan, DiscoverX); assay type: binding
T7 construct: T7 phage strains displaying bromodomains were grown in parallel; purchased DiscoverX; host or cells: T7 phage grown in E. coli host derived from BL21
Protocol: as §1, §2, §3

TAF1(2) = molecular target: T8, TAF1(2) (Homo sapiens, UniProt P21675); assay: BromoKdMAX (BROMOscan, DiscoverX); assay type: binding
T8 construct: T7 phage strains displaying bromodomains were grown in parallel; purchased DiscoverX; host or cells: T7 phage grown in E. coli host derived from BL21
Protocol: as §1, §2, §3

BRDT(1) = molecular target: T9, BRDT(1) (Homo sapiens, UniProt Q58F21); assay: BromoKdMAX (BROMOscan, DiscoverX); assay type: binding
T9 construct: T7 phage strains displaying bromodomains were grown in parallel; purchased DiscoverX; host or cells: T7 phage in an E. coli host derived from the BL21 strain
Protocol: as §1, §2, §3

PCAF = molecular target: T10, PCAF (Homo sapiens, UniProt Q92831); assay: BromoKdMAX (BROMOscan, DiscoverX); assay type: binding; details: PCAF (KAT2B)
T10 construct: T7 phage strains displaying bromodomains were grown in parallel; purchased DiscoverX; host or cells: T7 phage grown in E. coli host derived from BL21
Protocol: as §1, §2, §3

BRD1 = molecular target: T11, BRD1 (Homo sapiens, UniProt O95696); assay: BromoKdMAX (BROMOscan, DiscoverX); assay type: binding
T11 construct: T7 phage strains displaying bromodomains were grown in parallel; purchased DiscoverX; host or cells: T7 phage in an E. coli host derived from the BL21 strain
Protocol: as §1, §2, §3

BRD3(2) = molecular target: T12, BRD3(2) (Homo sapiens, UniProt Q15059); assay: BromoKdMAX (BROMOscan, DiscoverX); assay type: binding
T12 construct: T7 phage strains displaying bromodomains were grown in parallel; purchased DiscoverX; host or cells: T7 phage in an E. coli host derived from the BL21 strain
Protocol: as §1, §2, §3

BRD8(1) = molecular target: T13, BRD8(1) (Homo sapiens, UniProt Q9H0E9); assay: BromoKdMAX (BROMOscan, DiscoverX); assay type: binding
T13 construct: T7 phage strains displaying bromodomains were grown in parallel; purchased DiscoverX; host or cells: T7 phage in an E. coli host derived from the BL21 strain
Protocol: as §1, §2, §3

BRD9 = molecular target: T14, BRD9 (Homo sapiens, UniProt Q9H8M2); assay: BromoKdMAX (BROMOscan, DiscoverX); assay type: binding
T14 construct: T7 phage strains displaying bromodomains were grown in parallel; purchased DiscoverX; host or cells: T7 phage in an E. coli host derived from the BL21 strain
Protocol: as §1, §2, §3

BRPF1 = molecular target: T15, BRPF1 (Homo sapiens, UniProt P55201); assay: BromoKdMAX (BROMOscan, DiscoverX); assay type: binding
T15 construct: T7 phage strains displaying bromodomains were grown in parallel; purchased DiscoverX; host or cells: T7 phage in an E. coli host derived from the BL21 strain
Protocol: as §1, §2, §3

BRD3(1, 2) = molecular target: T16, BRD3(1, 2) (Homo sapiens, UniProt Q15059); assay: BromoKdMAX (BROMOscan, DiscoverX); assay type: binding
T16 construct: T7 phage strains displaying bromodomains were grown in parallel; purchased DiscoverX; host or cells: T7 phage in an E. coli host derived from the BL21 strain
Protocol: as §1, §2, §3

ATAD2B = molecular target: T17, ATAD2B (Homo sapiens, UniProt Q9ULI0); assay: BromoKdMAX (BROMOscan, DiscoverX); assay type: binding
T17 construct: T7 phage strains displaying bromodomains were grown in parallel; purchased DiscoverX; host or cells: T7 phage in an E. coli host derived from the BL21 strain
Protocol: as §1, §2, §3

CECR2 = molecular target: T18, CECR2 (Homo sapiens, UniProt Q9BXF3); assay: BromoKdMAX (BROMOscan, DiscoverX); assay type: binding
T18 construct: T7 phage strains displaying bromodomains were grown in parallel; purchased DiscoverX; host or cells: T7 phage grown in E. coli host derived from BL21
Protocol: as §1, §2, §3

WDR9(2) = molecular target: T19, WDR9(2) (Homo sapiens, UniProt Q9NSI6); assay: BromoKdMAX (BROMOscan, DiscoverX); assay type: binding; details: WDR9(2) (BRWD1)
T19 construct: T7 phage strains displaying bromodomains were grown in parallel; purchased DiscoverX; host or cells: T7 phage grown in E. coli host derived from BL21
Protocol: as §1, §2, §3

BAZ2A = molecular target: T20, BAZ2A (Homo sapiens, UniProt Q9UIF9); assay: BromoKdMAX (BROMOscan, DiscoverX); assay type: binding
T20 construct: T7 phage strains displaying bromodomains were grown in parallel; purchased DiscoverX; host or cells: T7 phage in an E. coli host derived from the BL21 strain
Protocol: as §1, §2, §3

BRD8(2) = molecular target: T21, BRD8(2) (Homo sapiens, UniProt Q9H0E9); assay: BromoKdMAX (BROMOscan, DiscoverX); assay type: binding
T21 construct: T7 phage strains displaying bromodomains were grown in parallel; purchased DiscoverX; host or cells: T7 phage in an E. coli host derived from the BL21 strain
Protocol: as §1, §2, §3

BRPF3 = molecular target: T22, BRPF3 (Homo sapiens, UniProt Q9ULD4); assay: BromoKdMAX (BROMOscan, DiscoverX); assay type: binding
T22 construct: T7 phage strains displaying bromodomains were grown in parallel; purchased DiscoverX; host or cells: T7 phage in an E. coli host derived from the BL21 strain
Protocol: as §1, §2, §3

BAZ2B = molecular target: T23, BAZ2B (Homo sapiens, UniProt Q9UIF8); assay: BromoKdMAX (BROMOscan, DiscoverX); assay type: binding
T23 construct: T7 phage strains displaying bromodomains were grown in parallel; purchased DiscoverX; host or cells: T7 phage in an E. coli host derived from the BL21 strain
Protocol: as §1, §2, §3

TRIM24(Bromo.) = molecular target: T24, TRIM24(Bromo.) (Homo sapiens, UniProt O15164); assay: BromoKdMAX (BROMOscan, DiscoverX); assay type: binding
T24 construct: T7 phage strains displaying bromodomains were grown in parallel; purchased DiscoverX; host or cells: T7 phage grown in E. coli host derived from BL21
Protocol: as §1, §2, §3

BRDT(2) = molecular target: T25, BRDT(2) (Homo sapiens, UniProt Q58F21); assay: BromoKdMAX (BROMOscan, DiscoverX); assay type: binding
T25 construct: T7 phage strains displaying bromodomains were grown in parallel; purchased DiscoverX; host or cells: T7 phage in an E. coli host derived from the BL21 strain
Protocol: as §1, §2, §3

BRD3(1) = molecular target: T26, BRD3(1) (Homo sapiens, UniProt Q15059); assay: BromoKdMAX (BROMOscan, DiscoverX); assay type: binding
T26 construct: T7 phage strains displaying bromodomains were grown in parallel; purchased DiscoverX; host or cells: T7 phage in an E. coli host derived from the BL21 strain
Protocol: as §1, §2, §3

SMARCA2 = molecular target: T27, SMARCA2 (Homo sapiens, UniProt P51531); assay: BromoKdMAX (BROMOscan, DiscoverX); assay type: binding
T27 construct: T7 phage strains displaying bromodomains were grown in parallel; purchased DiscoverX; host or cells: T7 phage grown in E. coli host derived from BL21
Protocol: as §1, §2, §3

BRDT(1, 2) = molecular target: T28, BRDT(1, 2) (Homo sapiens, UniProt Q58F21); assay: BromoKdMAX (BROMOscan, DiscoverX); assay type: binding
T28 construct: T7 phage strains displaying bromodomains were grown in parallel; purchased DiscoverX; host or cells: T7 phage in an E. coli host derived from the BL21 strain
Protocol: as §1, §2, §3

SMARCA4 = molecular target: T29, SMARCA4 (Homo sapiens, UniProt P51532); assay: BromoKdMAX (BROMOscan, DiscoverX); assay type: binding
T29 construct: T7 phage strains displaying bromodomains were grown in parallel; purchased DiscoverX; host or cells: T7 phage grown in E. coli host derived from BL21
Protocol: as §1, §2, §3

PBRM1(2) = molecular target: T30, PBRM1(2) (Homo sapiens, UniProt Q86U86); assay: BromoKdMAX (BROMOscan, DiscoverX); assay type: binding
T30 construct: T7 phage strains displaying bromodomains were grown in parallel; purchased DiscoverX; host or cells: T7 phage grown in E. coli host derived from BL21
Protocol: as §1, §2, §3

OPM-2 = assay: Assay 2: multiple myeloma cellular efficacy, PrestoBlue cell proliferation/survival; assay type: cell-based; details: Homo sapiens, 96 h, OPM-2 cells, 4 days
Summary of the method: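 Cells seeded at 10000/well and exposed to a compound dose range or vehicle for 4 days, then stained with PrestoBlue for 2 h at 37 °C. Fluorescence was background-subtracted and normalized to vehicle; EC50 came from a four-parameter variable-slope fit against log concentration.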

T6 sequence (Q86U86 653-763 limits assumed): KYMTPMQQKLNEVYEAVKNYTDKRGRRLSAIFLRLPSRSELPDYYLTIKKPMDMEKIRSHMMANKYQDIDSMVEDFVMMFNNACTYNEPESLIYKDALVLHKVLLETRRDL
T24 sequence (O15164 899-1004 limits assumed): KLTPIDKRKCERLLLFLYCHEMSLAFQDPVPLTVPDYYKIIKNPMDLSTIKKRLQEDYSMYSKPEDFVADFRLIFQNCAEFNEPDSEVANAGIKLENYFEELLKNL
T1 sequence (Q92830 728-832 limits assumed): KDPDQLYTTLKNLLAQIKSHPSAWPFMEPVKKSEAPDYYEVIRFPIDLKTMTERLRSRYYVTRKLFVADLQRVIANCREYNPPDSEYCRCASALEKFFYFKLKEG
T10 sequence (Q92831 723-827 limits assumed): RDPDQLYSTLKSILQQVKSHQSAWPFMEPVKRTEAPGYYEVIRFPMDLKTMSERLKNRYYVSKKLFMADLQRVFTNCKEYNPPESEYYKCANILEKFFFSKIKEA
T7 sequence (Q8IZX4 1517-1626 limits assumed): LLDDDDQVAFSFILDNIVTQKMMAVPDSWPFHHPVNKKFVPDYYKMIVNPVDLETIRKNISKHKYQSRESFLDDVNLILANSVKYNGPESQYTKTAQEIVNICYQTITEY
T16 sequence (Q15059 24-416 limits assumed): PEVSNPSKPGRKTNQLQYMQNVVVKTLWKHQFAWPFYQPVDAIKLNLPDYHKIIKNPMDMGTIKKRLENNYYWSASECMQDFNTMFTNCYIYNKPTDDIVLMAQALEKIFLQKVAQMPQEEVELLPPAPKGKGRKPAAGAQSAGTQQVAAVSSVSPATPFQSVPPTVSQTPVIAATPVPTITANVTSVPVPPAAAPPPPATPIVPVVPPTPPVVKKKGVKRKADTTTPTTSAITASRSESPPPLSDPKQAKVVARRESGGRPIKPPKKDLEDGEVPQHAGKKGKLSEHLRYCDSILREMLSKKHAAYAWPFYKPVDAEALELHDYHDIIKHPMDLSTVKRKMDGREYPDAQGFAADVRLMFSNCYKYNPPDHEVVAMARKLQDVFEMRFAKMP
T26 sequence (Q15059 34-140 limits assumed): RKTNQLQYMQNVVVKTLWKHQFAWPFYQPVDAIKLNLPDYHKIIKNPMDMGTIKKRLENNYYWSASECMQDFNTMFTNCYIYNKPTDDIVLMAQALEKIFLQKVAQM
T19 sequence (Q9NSI6 1313-1418 limits assumed): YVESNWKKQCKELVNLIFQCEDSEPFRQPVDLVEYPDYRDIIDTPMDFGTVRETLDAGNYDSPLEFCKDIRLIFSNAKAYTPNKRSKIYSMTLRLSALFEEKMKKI
T13 sequence (Q9H0E9 706-811 limits assumed): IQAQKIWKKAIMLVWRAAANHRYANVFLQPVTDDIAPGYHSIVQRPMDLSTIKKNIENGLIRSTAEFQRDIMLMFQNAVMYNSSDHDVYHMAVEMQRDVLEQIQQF
T27 sequence (P51531 1378-1506 limits assumed): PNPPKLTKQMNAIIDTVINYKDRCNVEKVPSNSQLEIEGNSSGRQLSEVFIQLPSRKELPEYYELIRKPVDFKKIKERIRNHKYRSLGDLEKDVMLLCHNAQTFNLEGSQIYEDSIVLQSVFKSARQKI
T11 sequence (O95696 562-666 limits assumed): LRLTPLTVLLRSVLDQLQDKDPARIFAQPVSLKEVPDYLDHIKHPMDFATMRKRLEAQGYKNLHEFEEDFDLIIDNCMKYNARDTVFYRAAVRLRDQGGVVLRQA
T18 sequence (Q9BXF3 434-538 limits assumed): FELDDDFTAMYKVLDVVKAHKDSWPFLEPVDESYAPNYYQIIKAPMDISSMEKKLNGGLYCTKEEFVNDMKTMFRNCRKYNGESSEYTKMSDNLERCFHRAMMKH
T23 sequence (Q9UIF8 2060-2164 limits assumed): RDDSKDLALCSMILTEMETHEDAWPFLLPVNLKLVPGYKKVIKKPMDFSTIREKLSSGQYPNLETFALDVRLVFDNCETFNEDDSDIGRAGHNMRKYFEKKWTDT
T15 sequence (P55201 628-732 limits assumed): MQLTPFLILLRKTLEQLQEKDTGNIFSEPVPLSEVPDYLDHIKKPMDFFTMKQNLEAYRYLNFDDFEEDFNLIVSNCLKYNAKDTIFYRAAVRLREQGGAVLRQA
T20 sequence (Q9UIF9 1793-1897 limits assumed): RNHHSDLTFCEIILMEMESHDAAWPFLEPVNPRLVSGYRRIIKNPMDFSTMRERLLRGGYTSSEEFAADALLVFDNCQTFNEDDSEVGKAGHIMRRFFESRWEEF
T30 sequence (Q86U86 177-287 limits assumed): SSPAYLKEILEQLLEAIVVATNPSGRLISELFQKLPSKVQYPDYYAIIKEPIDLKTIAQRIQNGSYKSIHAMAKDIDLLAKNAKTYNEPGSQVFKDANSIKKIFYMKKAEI
T14 sequence (Q9H8M2 136-240 limits assumed): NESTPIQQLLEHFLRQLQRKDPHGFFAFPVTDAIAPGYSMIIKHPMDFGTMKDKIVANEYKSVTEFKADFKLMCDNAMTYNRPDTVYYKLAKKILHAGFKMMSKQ
T8 sequence (P21675 1519-1628 limits assumed): as the sequence (Q8IZX4 1517-1626 limits assumed) above, with M46V, V51M, I102V, I107L counted along it
T3 sequence (O15164 824-1006 limits assumed): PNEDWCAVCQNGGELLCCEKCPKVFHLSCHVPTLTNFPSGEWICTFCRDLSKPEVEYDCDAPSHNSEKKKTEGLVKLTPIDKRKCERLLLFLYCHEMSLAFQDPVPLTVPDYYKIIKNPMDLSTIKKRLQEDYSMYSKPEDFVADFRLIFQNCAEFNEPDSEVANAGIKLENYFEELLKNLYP
T12 sequence (Q15059 306-415 limits assumed): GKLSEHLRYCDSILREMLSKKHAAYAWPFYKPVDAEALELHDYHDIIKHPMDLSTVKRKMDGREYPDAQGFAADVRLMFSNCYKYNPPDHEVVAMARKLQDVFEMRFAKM
T29 sequence (P51532 1453-1564 limits assumed): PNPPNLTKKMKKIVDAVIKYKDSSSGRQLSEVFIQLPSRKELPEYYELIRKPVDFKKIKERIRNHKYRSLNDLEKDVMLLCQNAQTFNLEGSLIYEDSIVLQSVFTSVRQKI
T21 sequence (Q9H0E9 1099-1207 limits assumed): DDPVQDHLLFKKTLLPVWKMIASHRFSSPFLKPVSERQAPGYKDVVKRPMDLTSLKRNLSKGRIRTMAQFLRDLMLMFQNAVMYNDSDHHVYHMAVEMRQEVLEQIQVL
T17 sequence (Q9ULI0 951-1066 limits assumed): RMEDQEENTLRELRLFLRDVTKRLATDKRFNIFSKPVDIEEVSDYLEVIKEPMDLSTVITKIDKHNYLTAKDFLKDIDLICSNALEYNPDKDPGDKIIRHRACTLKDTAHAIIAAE
T22 sequence (Q9ULD4 589-693 limits assumed): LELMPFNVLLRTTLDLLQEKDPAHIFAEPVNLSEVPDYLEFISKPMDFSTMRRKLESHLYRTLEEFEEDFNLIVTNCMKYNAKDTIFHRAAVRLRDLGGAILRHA
T5 sequence (Q6PL18 980-1092 limits assumed): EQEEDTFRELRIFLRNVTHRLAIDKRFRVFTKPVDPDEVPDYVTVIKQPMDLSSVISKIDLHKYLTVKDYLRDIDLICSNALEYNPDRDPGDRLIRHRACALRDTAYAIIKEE
T4 sequence (Q9NPI1 131-235 limits assumed): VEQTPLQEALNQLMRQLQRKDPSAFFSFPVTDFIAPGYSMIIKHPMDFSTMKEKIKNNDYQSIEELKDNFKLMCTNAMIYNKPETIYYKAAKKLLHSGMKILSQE

- pKd (GCN5L2): < 5.00
- pKd (FALZ): < 5.00
- pKd (TRIM24(PHD, Bromo.)): < 5.00
- pKd (BRD7): < 5.00
- pKd (ATAD2A): < 5.00
- pKd (PBRM1(5)): < 5.00
- pKd (TAF1L(2)): < 5.00
- pKd (TAF1(2)): < 5.00
- pKd (BRDT(1)): < 5.00
- pKd (PCAF): < 5.00
- pKd (BRD1): < 5.00
- pKd (BRD3(2)): < 5.00
- pKd (BRD8(1)): < 5.00
- pKd (BRD9): < 5.00
- pKd (BRPF1): < 5.00
- pKd (BRD3(1, 2)): < 5.00
- pKd (ATAD2B): < 5.00
- pKd (CECR2): < 5.00
- pKd (WDR9(2)): < 5.00
- pKd (BAZ2A): < 5.00
- pKd (BRD8(2)): < 5.00
- pKd (BRPF3): < 5.00
- pKd (BAZ2B): < 5.00
- pKd (TRIM24(Bromo.)): < 5.00
- pKd (BRDT(2)): < 5.00
- pKd (BRD3(1)): < 5.00
- pKd (SMARCA2): < 5.00
- pKd (BRDT(1, 2)): < 5.00
- pKd (SMARCA4): < 5.00
- pKd (PBRM1(2)): < 5.00
Structure (SMILES): COc1cncc(-c2cc(Nc3cccc(F)c3)nc([C@@H]3CC[C@H](C)N(C(C)=O)C3)n2)c1 [Compound 00004]
- pEC50 (OPM-2): > 6.70
